According to patent US6399581B1, “Compound possessing potent thrombin receptor antagonist activity” (Harbor Branch Oceanographic Institution, Inc., priority 1999, dated 2002):
Each block holds one compound with its values, some of them ahead of it.

Assays:
rat mast cells = details: cited from earlier work
thrombin receptor = molecular target: T1, thrombin receptor (Homo sapiens, UniProt P25116); assay: Thrombin receptor antagonist assay using FLIPR: thrombin-induced intracellular calcium mobilization in HeLa cells; format: cell-based; details: fluo-3, thrombin 0.3 U/ml
T1 construct: HeLa cells, which constitutively express the thrombin receptor; endogenous in cells; host or cells: HeLa cells
T1 sequence (P25116 22-425): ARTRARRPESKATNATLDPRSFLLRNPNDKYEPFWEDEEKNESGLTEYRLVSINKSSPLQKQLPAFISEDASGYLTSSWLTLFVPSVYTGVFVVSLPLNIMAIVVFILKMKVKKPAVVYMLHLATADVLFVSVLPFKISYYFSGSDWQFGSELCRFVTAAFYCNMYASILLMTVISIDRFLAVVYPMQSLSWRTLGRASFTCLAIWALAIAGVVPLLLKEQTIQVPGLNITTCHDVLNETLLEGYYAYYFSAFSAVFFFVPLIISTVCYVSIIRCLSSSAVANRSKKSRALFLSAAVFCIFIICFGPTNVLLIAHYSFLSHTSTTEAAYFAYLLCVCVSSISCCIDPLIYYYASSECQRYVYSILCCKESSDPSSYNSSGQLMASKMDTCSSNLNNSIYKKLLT
Experimental: Tests were conducted of inhibition of thrombin-induced calcium mobilization in HeLa cells (see FIG. 2). […] The HPLC profiles of the extracts were very similar, and in both cases the biological activity resided in the same chromatographic fractions indicating common active principles. One of these was fully deconvoluted, and several active components were isolated. These were all glycosides of penasterol though differing in the number of sugar residues attached at the C-1 position.
Thrombin receptor antagonist assay using FLIPR (fluorescence)imaging plate reader: HeLa cells were suspended in complete media and the cell density measured then adjusted to give a final cell density of 2.0×10^5/ml. 100 μl of cell suspension was dispensed into 96-well microtitre plates using a Multipdrop 96/384 well plate dispenser. […] Fluorescence output was read every 1 second for the first 20 seconds then every 5 seconds for a further 30 seconds.
An assay was conducted based upon measurement of thrombin-inducedintracellular calcium mobilization in HeLa cells, which constitutively express the thrombin receptor. Intracellular calcium flux was measured using the fluorescent dye fluo-3' which in the absence of calcium ions fluoresces only weakly, but in the presence of calcium increases fluorescence by approximately 100-fold. Fluorescence was measured using a fluorescence imaging plate reader (FLIPR; see FIG. 2).

[1] = molecular target: T2, protease-activated receptor 1 (PAR-1) (Homo sapiens, UniProt P25116); assay: SFLLRN-induced platelet aggregation, human washed platelets; format: cell-based
T2 construct: Blood was withdrawn from the antecubal vein of healthy human volunteers; endogenous in cells; host or cells: washed platelets from blood of healthy human volunteers
T2 sequence (P25116 22-425): T1 sequence (P25116 22-425)
Experimental: (§1) Platelet aggregation assay: Blood was withdrawn from the antecubal vein of healthy human volunteers who had taken no medication for 14 days. The blood (9 volumes) was anti-coagulated with 1 volume of 3.8% w/v tri-sodium citrate, to give a final citrate concentration of 12.9 mM. To each 20 ml volume of anti-coagulated blood 50 μl of a 10 μg/ml prostacyclin (PGI2) solution was added to prevent activation during the platelet isolation process. The prostacyclin-treated blood was then centrifuged (1280×g; 4 minutes) to yield platelet-rich plasma (PRP). […] The supernatant (platelet-poor plasma) was discarded and the platelets resuspended in a Hepes buffer (NaCl (8 g/l); NaHCO3 (1 g/l); KCl (0.2 g/l); KH2 PO4 (0.1 g/l); Hepes (1.2 g/l); D-Glucose (1 g/l) adjusted to a pH of 6.4. The resultant platelet suspension was again centrifuged (1280×g; 8 minutes) to pellet the platelets. The supernatant was discarded and the platelets resuspended in a Hepes buffer of the same composition but adjusted to a pH of 7.4. The platelet count was then adjusted to 300,000 platelets/μl, following quantification on a Sysmex K1000 Haematological analyser and CaCl2 (1 mM) and MgCl2 (0.5 mM) were added back. […]
(§2) Platelet aggregation, in a human washed platelet preparation, was quantified using an optical aggregometer. […]

[2] = system: human washed platelet preparation; assay: U-46619-induced platelet aggregation, human washed platelets; format: cell-based; details: U-46619 3 μM
Experimental: as §1, §2

[3] = molecular target: T2, protease-activated receptor 1 (PAR-1); assay: Thrombin-induced platelet aggregation, human washed platelets; format: cell-based; details: thrombin 0.1 U/ml
Experimental: as §1, §2

[4] = system: liver hepatocyte (HepG2) cells; assay: Toxicity against liver hepatocyte (HepG2) cells; format: cell-based
C5 a-receptor = molecular target: T3, C5 a-receptor (Homo sapiens, UniProt P21730); details: cited from earlier work
T3 sequence (P21730 1-350): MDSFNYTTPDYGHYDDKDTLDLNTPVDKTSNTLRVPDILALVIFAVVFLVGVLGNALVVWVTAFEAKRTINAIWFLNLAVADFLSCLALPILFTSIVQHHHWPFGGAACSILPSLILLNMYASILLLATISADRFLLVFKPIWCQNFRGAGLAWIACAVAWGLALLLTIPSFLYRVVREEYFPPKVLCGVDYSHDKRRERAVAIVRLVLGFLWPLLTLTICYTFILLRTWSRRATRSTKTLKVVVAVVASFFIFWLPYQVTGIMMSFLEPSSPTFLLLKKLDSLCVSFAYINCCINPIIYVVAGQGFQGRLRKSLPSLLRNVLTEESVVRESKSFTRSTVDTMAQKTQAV

Compound: CC(=O)O[C@H]1CC[C@]2(C)C3=C(CC[C@H]2C1(C)C)[C@]1(C(=O)O)CC[C@H]([C@H](C)CCC=C(C)C)[C@@]1(C)CC3 [acetylpenasterol]
Inhibition of IgE-dependent histamine release (rat mast cells): inhibit IgE-dependent histamine release

Inhibition of thrombin-induced calcium mobilization (thrombin receptor antagonist activity) (thrombin receptor): most potent activity
Fold more potent against SFLLRN- than against U-46619-induced platelet aggregation ([1]; SFLLRN 3 μM vs U-46619 3 μM): approximately 6 fold
IC50, inhibition of SFLLRN-induced platelet aggregation ([1]; SFLLRN 3 μM, human washed platelets): 0.3 µg/mL
IC50, inhibition of U-46619-induced platelet aggregation [2]: 1.7 µg/mL
Inhibitory potency against thrombin-induced platelet aggregation relative to SFLLRN-induced, fold lower [3]: approximately 20 fold
Compound: CC(C)=CCC[C@@H](C)[C@H]1CC[C@@]2(C(=O)O)C3=C(CC[C@]12C)[C@@]1(C)CC[C@H](O[C@@H]2OC[C@H](O)[C@H](O)[C@H]2O[C@@H]2O[C@H](CO)[C@H](O)[C@H](O)[C@H]2O)C(C)(C)[C@@H]1CC3 [Eryloside F, eryloside F]
Toxicity against HepG2 cells [4]: low toxicity

Compound: Eryloside E
Antagonism of C5a-receptor binding (C5 a-receptor): antagonist of C5 a-receptorbinding

Compound: Penasterol
Inhibition of IgE-dependent histamine release (rat mast cells): inhibit IgE-dependent histamine release

Compound: CC(C)=CCC[C@@H](C)[C@H]1CC[C@@]2(C(=O)O)C3=C(CC[C@]12C)[C@@]1(C)CCC(=O)C(C)(C)[C@@H]1CC3 [penasterone]
Inhibition of IgE-dependent histamine release (rat mast cells): inhibit IgE-dependent histamine release
